# Data: patent US7553966B2, “Glucocorticoid mimetics, methods of making them, pharmaceutical compositions, and uses thereof” (Boehringer Ingelheim Pharmaceuticals, Inc., priority 2002, dated 2009)
# Target: T1, human glucocorticoid receptor (GR) complex (Homo sapiens, UniProt P04150)
# T1 construct: made in house; host or cells: insect expression system (baculovirus lysate)
# T1 sequence (P04150 1-777): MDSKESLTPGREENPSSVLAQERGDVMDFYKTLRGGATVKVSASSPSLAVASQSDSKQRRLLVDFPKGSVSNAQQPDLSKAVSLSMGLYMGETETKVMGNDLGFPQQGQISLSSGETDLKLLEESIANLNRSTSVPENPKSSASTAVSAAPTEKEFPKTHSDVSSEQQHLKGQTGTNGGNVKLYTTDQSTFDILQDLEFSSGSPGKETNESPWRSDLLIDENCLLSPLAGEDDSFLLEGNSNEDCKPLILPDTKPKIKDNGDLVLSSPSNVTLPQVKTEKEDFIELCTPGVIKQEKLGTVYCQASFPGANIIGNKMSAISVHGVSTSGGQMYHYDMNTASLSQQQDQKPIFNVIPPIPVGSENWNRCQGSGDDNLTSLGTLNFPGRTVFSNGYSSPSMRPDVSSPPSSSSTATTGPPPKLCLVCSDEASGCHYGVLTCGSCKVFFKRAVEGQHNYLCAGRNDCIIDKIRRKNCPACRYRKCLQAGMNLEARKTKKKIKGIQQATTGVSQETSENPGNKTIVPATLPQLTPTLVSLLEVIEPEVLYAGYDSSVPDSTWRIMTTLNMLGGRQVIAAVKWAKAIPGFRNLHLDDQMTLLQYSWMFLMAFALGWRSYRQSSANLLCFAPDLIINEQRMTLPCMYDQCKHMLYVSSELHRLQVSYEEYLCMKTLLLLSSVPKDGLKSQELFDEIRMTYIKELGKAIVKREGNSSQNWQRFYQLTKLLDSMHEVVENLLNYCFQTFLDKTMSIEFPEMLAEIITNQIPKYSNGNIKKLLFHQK
# Experiment: Glucocorticoid Receptor Competitive Binding Assay (fluorescence polarization, TAMRA-labeled dexamethasone probe)
# Settings: qualitative statement; competition with TAMRA-labeled dexamethasone
# Experimental: Compounds of the invention were evaluated for binding to the steroid receptor by a fluorescence polarization competitive binding assay.
# A. Glucocorticoid Receptor Competitive Binding Assay
# Step 1. Characterization of the Fluorescent Probe
# The wavelengths for maximum excitation and emission of the fluorescent probe should first be measured. An example of such a probe is rhodamine (TAMRA)-labeled dexamethasone.
# The affinity of the probe for the steroid receptor was then determined in a titration experiment. The fluorescence polarization value of the probe in assay buffer was measured on an SLM-8100 fluorometer using the excitation and emission maximum values described above. Aliquots of expression vector lysate were added and fluorescence polarization was measured after each addition until no further change in polarization value was observed. Non-linear least squares regression analysis was used to calculate the dissociation constant of the probe from the polarization values obtained for lysate binding to the probe.
# Step 2. Screening for Inhibitors of Probe Binding
# This assay uses fluorescence polarization (FP) to quantitate the ability of test compounds to compete with tetramethyl rhodamine (TAMRA)-labeled dexamethasone for binding to a human glucocorticoid receptor (GR) complex prepared from an insect expression system. The assay buffer was: 10 mM TES, 50 mM KCl, 20 mM Na2MoO4. 2H2O, 1.5 mM EDTA, 0.04% w/v CHAPS, 10% v/v glycerol, 1 mM dithiothreitol, pH 7.4. Test compounds were dissolved to 1 mM in neat DMSO and then further diluted to 10× assay concentration in assay buffer supplemented with 10% v/v DMSO. Test compounds were serially diluted at 10× assay concentrations in 10% DMSO-containing buffer in 96-well polypropylene plates. […] Positive controls were reaction mixtures containing no test compound; negative controls (blanks) were reaction mixtures containing 0.7 μM to 2 μM dexamethasone. […] IC50 values were determined by iterative non-linear curve fitting of the FP signal data to a 4-parameter logistic equation.
row,activity in the GR binding assay,SMILES
1,potent activity,"Cc1cccc(C)c1C(C)(C)CC(O)(Cc1ccnc2ccccc12)C(F)(F)F (stereo not shown) [4-(2,6-Dimethylphenyl)-1,1,1-trifluoro-4-methyl-2-quinolin-4-ylmethylpentan-2-ol]"
2,potent activity,"CCc1cccc(C(C)(C)CC(O)(Cc2ccnc3ccccc23)C(F)(F)F)c1OC (stereo not shown) [4-(3-Ethyl-2-methoxyphenyl)-1,1,1-trifluoro-4-methyl-2-quinolin-4-ylmethylpentan-2-ol]"
3,potent activity,"CC(C)(CC(O)(Cc1ccnc2ccccc12)C(F)(F)F)c1cc(Br)cc2c1OCCC2 (stereo not shown) [4-(6-Bromochroman-8-yl)-1,1,1-trifluoro-4-methyl-2-quinolin-4-ylmethylpentan-2-ol]"
4,potent activity,"CC(C)(CC(O)(Cc1ccnc2ccccc12)C(F)(F)F)c1cccc2c1OCCC2 (stereo not shown) [4-Chroman-8-yl-1,1,1-trifluoro-4-methyl-2-quinolin-4-ylmethylpentan-2-ol]"

# More lines, now with the values behind:
row,SMILES,activity in the GR binding assay
1,COc1ccc(F)cc1C(C)(C)CC(O)(CF)Cc1cc2ccccc2[nH]1 (stereo not shown) [4-(5-Fluoro-2-methoxyphenyl)-2-fluoromethyl-1-(1H-indol-2-yl)-4-methylpentan-2-ol],potent activity
2,"CC(C)(CC(O)(Cc1cc2cccc(F)c2[nH]1)C(F)(F)F)c1cc(F)ccc1O (stereo not shown) [4-Fluoro-2-[4,4,4-trifluoro-3-(7-fluoro-1H-indol-2-ylmethyl)-3-hydroxy-1,1-dimethylbutyl]phenol]",potent activity
3,"Cc1c(CC(O)(CC(C)(C)c2cc(F)ccc2O)C(F)(F)F)[nH]c2cnccc12 (stereo not shown) [4-Fluoro-2-[4,4,4-trifluoro-3-hydroxy-1,1-dimethyl-3-(3-methyl-1H-pyrrolo[2,3-c]pyridin-2-ylmethyl)butyl]phenol]",potent activity
4,"CC(C)(CC(O)(Cc1cc2ccccc2[nH]1)C(F)(F)F)c1ccc(O)cc1 (stereo not shown) [4-[4,4,4-Trifluoro-3-hydroxy-3-(1H-indol-2-ylmethyl)-1,1-dimethylbutyl]phenol]",potent activity
5,"COc1ccc(F)cc1C(C)(C)CC(O)(Cc1nc2ccccc2[nH]1)C(C)(C)C (stereo not shown) [5-(5-Fluoro-2-methoxyphenyl)-3-(benzimidazol-2-ylmethyl)-2,2,5-trimethylhexan-3-ol]",potent activity
6,"COc1ccc(F)cc1C(C)(C)CC(O)(Cc1cc2ccccc2[nH]1)C(C)C (stereo not shown) [5-(5-Fluoro-2-methoxyphenyl)-3-(indol-2-ylmethyl)-2,5-dimethylhexan-3-ol]",potent activity
7,CCC(O)(Cc1cc2ccccc2[nH]1)CC(C)(C)c1cc(F)ccc1OC (stereo not shown) [5-(5-Fluoro-2-methoxyphenyl)-3-(indol-2-ylmethyl)-5-methylhexan-3-ol],potent activity
8,"CC(C)(CC(O)(Cc1cc2cccc(F)c2[nH]1)C(F)(F)F)c1ccc(F)cc1O (stereo not shown) [5-Fluoro-2-[4,4,4-trifluoro-3-(7-fluoro-1H-indol-2-ylmethyl)-3-hydroxy-1,1-dimethylbutyl]phenol]",potent activity
9,"CC(C)(CC(O)(Cc1cc2cnccc2[nH]1)C(F)(F)F)c1ccc(F)cc1O (stereo not shown) [5-Fluoro-2-[4,4,4-trifluoro-3-hydroxy-1,1-dimethyl-3-(1H-pyrrolo[3,2-c]pyridin-2-ylmethyl)butyl]phenol]",potent activity
